#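 These data come from cells grown in 96-well plates and exposed to compound for 48 hours at five concentrations. GI50 is the concentration that inhibits growth by half. At the TGI there is no net growth.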
# Experiments:
# Assay in all cases: NCI tumour cell line growth inhibition, 48 h
# [1] = system: 786-0 renal
# [2] = system: A498 renal
# [3] = system: A549 NSCLC
# [4] = system: ACHN renal
# [5] = system: BT-549 breast
# [6] = system: CAKI-1 renal
# [7] = system: CCRF-CEM leukemia
# [8] = system: COLO 205 colon
# [9] = system: DU-145 prostate
# [10] = system: EKVX NSCLC
# [11] = system: HCC-2998 colon
# [12] = system: HCT-116 colon
# [13] = system: HCT-15 colon
# [14] = system: HL-60(TB) leukemia
# [15] = system: HOP-62 NSCLC
# [16] = system: HOP-92 NSCLC
# [17] = system: HS 578T breast
# [18] = system: HT29 colon
# [19] = system: IGROV1 ovarian
# [20] = system: K-562 leukemia
# [21] = system: KM12 colon
# [22] = system: LOX IMVI melanoma
# [23] = system: M14 melanoma
# [24] = system: MALME-3M melanoma
# [25] = system: MCF7 breast
# [26] = system: MDA-MB-231 breast
# [27] = system: MDA-MB-435
# [28] = system: MOLT-4 leukemia
# [29] = system: NCI-H226 lung
# [30] = system: NCI-H23 lung
# [31] = system: NCI-H460 lung
# [32] = system: NCI-H522 lung
# [33] = system: NCI/ADR-RES ovarian
# [34] = system: OVCAR-3 ovarian
# [35] = system: OVCAR-4 ovarian
# [36] = system: OVCAR-5 ovarian
# [37] = system: OVCAR-8 ovarian
# [38] = system: PC-3 prostate
# [39] = system: RPMI-8226 leukemia
# [40] = system: RXF 393 renal
# [41] = system: SF-268 CNS
# [42] = system: SF-295 CNS
# [43] = system: SF-539 CNS
# [44] = system: SK-MEL-2 melanoma
# [45] = system: SK-MEL-28 melanoma
# [46] = system: SK-MEL-5 melanoma
# [47] = system: SK-OV-3 ovarian
# [48] = system: SN12C renal
# [49] = system: SNB-19 CNS
# [50] = system: SNB-75 CNS
# [51] = system: SR leukemia
# [52] = system: SW-620 colon
# [53] = system: T-47D breast
# [54] = system: TK-10 renal
# [55] = system: U251 CNS
# [56] = system: UACC-257 melanoma
# [57] = system: UACC-62 melanoma
# [58] = system: UO-31 renal
structure (smiles),measurement,setting,value
ClC1=C(Cl)C(Cl)=C(Cl)C1=Cc1ccccc1,GI50,[1],1320 nM
same,TGI,[1],3080 nM
same,GI50,[2],1390 nM
same,TGI,[2],2780 nM
same,GI50,[3],1630 nM
same,TGI,[3],4320 nM
same,GI50,[4],703 nM
same,TGI,[4],2220 nM
same,GI50,[5],1680 nM
same,TGI,[5],3890 nM
same,GI50,[6],342 nM
same,TGI,[6],1130 nM
same,GI50,[7],288 nM
same,TGI,[7],3570 nM
same,GI50,[8],937 nM
same,TGI,[8],2650 nM
same,GI50,[9],708 nM
same,TGI,[9],2830 nM
same,GI50,[10],1400 nM
same,TGI,[10],3390 nM
same,GI50,[11],1730 nM
same,TGI,[11],3140 nM
same,GI50,[12],293 nM
same,TGI,[12],936 nM
same,GI50,[13],1220 nM
same,TGI,[13],6040 nM
same,GI50,[14],595 nM
same,TGI,[14],2400 nM
same,GI50,[15],1640 nM
same,TGI,[15],3680 nM
same,GI50,[16],621 nM
same,TGI,[16],1610 nM
same,GI50,[17],915 nM
same,TGI,[17],10100 nM
same,GI50,[18],457 nM
same,TGI,[18],2270 nM
same,GI50,[19],916 nM
same,TGI,[19],2510 nM
same,GI50,[20],277 nM
same,TGI,[20],3500 nM
same,GI50,[21],1470 nM
same,TGI,[21],3110 nM
same,GI50,[22],198 nM
same,TGI,[22],469 nM
same,GI50,[23],495 nM
same,TGI,[23],2110 nM
same,GI50,[24],1490 nM
same,TGI,[24],4150 nM
same,GI50,[25],610 nM
same,TGI,[25],7020 nM
same,GI50,[26],2430 nM
same,TGI,[26],10400 nM
same,GI50,[27],350 nM
same,TGI,[27],1160 nM
same,GI50,[28],314 nM
same,TGI,[28],1560 nM
same,GI50,[29],1910 nM
same,TGI,[29],3860 nM
same,GI50,[30],520 nM
same,TGI,[30],2080 nM
same,GI50,[31],1250 nM
same,TGI,[31],4130 nM
same,GI50,[32],189 nM
same,TGI,[32],459 nM
same,GI50,[33],287 nM
same,TGI,[33],1160 nM
same,GI50,[34],463 nM
same,TGI,[34],1620 nM
same,GI50,[35],2000 nM
same,TGI,[35],6920 nM
same,GI50,[36],1650 nM
same,TGI,[36],3850 nM
same,GI50,[37],417 nM
same,TGI,[37],21000 nM
same,GI50,[38],622 nM
same,TGI,[38],3700 nM
same,GI50,[39],311 nM
same,TGI,[39],2300 nM
same,GI50,[40],920 nM
same,TGI,[40],2230 nM
same,GI50,[41],753 nM
same,TGI,[41],2430 nM
same,GI50,[42],1330 nM
same,TGI,[42],3740 nM
same,GI50,[43],1830 nM
same,TGI,[43],4200 nM
same,GI50,[44],1380 nM
same,TGI,[44],2970 nM
same,GI50,[45],1620 nM
same,TGI,[45],3270 nM
same,GI50,[46],1380 nM
same,TGI,[46],2680 nM
same,GI50,[47],2000 nM
same,TGI,[47],4660 nM
same,GI50,[48],1950 nM
same,TGI,[48],7150 nM
same,GI50,[49],1630 nM
same,TGI,[49],3580 nM
same,GI50,[50],1460 nM
same,TGI,[50],3100 nM
same,GI50,[51],334 nM
same,TGI,[51],2570 nM
same,GI50,[52],293 nM
same,TGI,[52],1030 nM
same,GI50,[53],1150 nM
same,TGI,[53],3560 nM
same,GI50,[54],645 nM
same,TGI,[54],2020 nM
same,GI50,[55],517 nM
same,TGI,[55],1590 nM
same,GI50,[56],731 nM
same,TGI,[56],2130 nM
same,GI50,[57],1650 nM
same,TGI,[57],5020 nM
same,GI50,[58],527 nM
same,TGI,[58],1980 nM

# — PubChem BioAssay (NCI)
